target: T1, recombinant human 11 β-HSD1 (Homo sapiens, UniProt P28845); test: 11 β-HSD1 SPA Assay (Scintillation Proximity Assay); assay type: biochemical
T1 construct: made in house; host or cells: E. coli
In short: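 Scintillation proximity read-out of cortisol formed from 40 nM [3H]cortisone by purified recombinant human enzyme (30-100 nM, E. coli) with 1 mM NADPH, pH7.4, 2 hours at room temperature; beads with cortisol antibody and glycyrrhetinic acid stop the reaction, read next day. IC50 derived from inhibition normalised to background and maximal wells.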

T1 sequence (P28845 whole entry): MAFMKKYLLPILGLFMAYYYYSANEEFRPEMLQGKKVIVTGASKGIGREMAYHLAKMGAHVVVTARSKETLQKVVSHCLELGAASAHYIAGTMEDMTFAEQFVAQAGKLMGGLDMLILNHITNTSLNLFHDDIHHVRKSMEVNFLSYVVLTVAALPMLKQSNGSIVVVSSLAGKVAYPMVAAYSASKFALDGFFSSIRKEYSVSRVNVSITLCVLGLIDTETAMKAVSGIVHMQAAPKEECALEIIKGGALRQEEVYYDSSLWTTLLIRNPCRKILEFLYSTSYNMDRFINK

`CC(C)(Oc1ccc(Cl)cc1Cl)C(=O)N[C@H]1C[C@H]2CC[C@@H](C1)N2c1ccc(C(=O)NC2COC2)cn1` [Example 317, 6-[3-endo-({2-[(2,4-dichlorophenyl)oxy]-2-methylpropanoyl}amino)-8-azabicyclo[3.2.1]oct-8-yl]-N-oxetan-3-ylpyridine-3-carboxamide] and `CC(C)(Oc1ccc(Cl)cc1Cl)C(=O)NC1CC2CCC(C1)N2c1ccc(C(=O)NCC(O)C(F)(F)F)cn1` (stereo not drawn) [Example 421, 6-(3-endo-{[2-(2,4-dichlorophenoxy)-2-methylpropanoyl]amino}-8-azabicyclo[3.2.1]oct-8-yl)-N-(3,3,3-trifluoro-2-hydroxypropyl)pyridine-3-carboxamide] cannot be ordered by IC50: less than 200 nM for the first, less than 200 nM for the second.

`CC(=O)Nc1ccc(N2[C@@H]3CC[C@H]2C[C@@H](NC(=O)C2(c4ccc(Cl)cc4)CC2)C3)nc1` [Example 58, N-{8-[5-(acetylamino)pyridin-2-yl]-8-azabicyclo[3.2.1]oct-3-endo-yl}-1-(4-chlorophenyl)cyclopropanecarboxamide] and `O=C(O)c1ccc(N2[C@@H]3CC[C@H]2C[C@@H](NC(=O)C2(c4ccc(Cl)cc4)CC2)C3)nc1` [Example 19, 6-[3-endo-({[1-(4-chlorophenyl)cyclopropyl]carbonyl}amino)-8-azabicyclo[3.2.1]oct-8-yl]pyridine-3-carboxylic acid] cannot be ordered by IC50: less than 200 nM for the first, less than 2000 nM for the second.

`CC(C)(Oc1cc(Cl)c(Cl)cc1Cl)C(=O)N[C@H]1C[C@H]2CC[C@@H](C1)N2c1ccc(S(C)(=O)=O)cn1` [Example 197, 2-methyl-N-{8-[5-(methylsulfonyl)pyridin-2-yl]-8-azabicyclo[3.2.1]oct-3-endo-yl}-2-[(2,4,5-trichlorophenyl)oxy]propanamide] and `CC(C)(Oc1cc(Cl)c(Cl)cc1Cl)C(=O)N[C@H]1C[C@H]2CC[C@@H](C1)N2c1ccc(S(N)(=O)=O)cn1` [Example 198, N-{8-[5-(aminosulfonyl)pyridin-2-yl]-8-azabicyclo[3.2.1]oct-3-endo-yl}-2-methyl-2-[(2,4,5-trichlorophenyl)oxy]propanamide] cannot be ordered by IC50: less than 200 nM for the first, less than 200 nM for the second.

`O=C(NCC(F)(F)F)c1ccc(N2[C@@H]3CC[C@H]2C[C@@H](NC(=O)C2(c4cccc(Cl)c4)CC2)C3)nc1` [Example 122, 6-[3-endo-({[1-(3-chlorophenyl)cyclopropyl]carbonyl}amino)-8-azabicyclo[3.2.1]oct-8-yl]-N-(2,2,2-trifluoroethyl)pyridine-3-carboxamide] and `O=C(NCC(F)(F)F)c1ccc(N2[C@@H]3CC[C@H]2C[C@@H](NC(=O)C2(c4ccc(F)c(F)c4)CC2)C3)nc1` [Example 121, 6-[3-endo-({[1-(3,4-difluorophenyl)cyclopropyl]carbonyl}amino)-8-azabicyclo[3.2.1]oct-8-yl]-N-(2,2,2-trifluoroethyl)pyridine-3-carboxamide] cannot be ordered by IC50: less than 200 nM for the first, less than 200 nM for the second.

`CC(C)(Oc1ccc(Cl)cc1F)C(=O)N[C@H]1C[C@H]2CC[C@@H](C1)N2c1ccc(C(=O)NCC(F)F)cn1` [Example 447, 6-(3-endo-{[2-(4-chloro-2-fluorophenoxy)-2-methylpropanoyl]amino}-8-azabicyclo[3.2.1]oct-8-yl)-N-(2,2-difluoroethyl)pyridine-3-carboxamide] and `CC(C)(O)CNC(=O)c1ccc(N2[C@@H]3CC[C@H]2C[C@@H](NC(=O)C(C)(C)Oc2ccc(Cl)cc2OC(F)(F)F)C3)nc1` [Example 438, 6-[3-endo-({2-[4-chloro-2-(trifluoromethoxy)phenoxy]-2-methylpropanoyl}amino)-8-azabicyclo[3.2.1]oct-8-yl]-N-(2-hydroxy-2-methylpropyl)pyridine-3-carboxamide] cannot be ordered by IC50: less than 200 nM for the first, less than 200 nM for the second.

`CC(C)(Oc1ccc(F)cc1C(F)(F)F)C(=O)N[C@H]1C[C@H]2CC[C@@H](C1)N2c1ccc(S(C)(=O)=O)cn1` [Example 176, 2-{[4-fluoro-2-(trifluoromethyl)phenyl]oxy}-2-methyl-N-{8-[5-(methylsulfonyl)pyridin-2-yl]-8-azabicyclo[3.2.1]oct-3-endo-yl}propanamide] and `Cc1cc(F)ccc1OC(C)(C)C(=O)N[C@H]1C[C@H]2CC[C@@H](C1)N2c1ccc(S(C)(=O)=O)cn1` [Example 217, 2-[(4-fluoro-2-methylphenyl)oxy]-2-methyl-N-{8-[5-(methylsulfonyl)pyridin-2-yl]-8-azabicyclo[3.2.1]oct-3-endo-yl}propanamide] cannot be ordered by IC50: less than 200 nM for the first, less than 200 nM for the second.

`CC(C)(Oc1ccc(OC(F)(F)F)cc1)C(=O)N[C@H]1C[C@H]2CC[C@@H](C1)N2c1ccc(C(=O)NCC(F)(F)F)cn1` [Example 128, 6-(3-endo-{[2-methyl-2-({4-[(trifluoromethyl)oxy]phenyl}oxy)propanoyl]amino}-8-azabicyclo[3.2.1]oct-8-yl)-N-(2,2,2-trifluoroethyl)pyridine-3-carboxamide] and `CC(C)(COc1ccc(Cl)cc1C(F)(F)F)C(=O)N[C@H]1C[C@H]2CC[C@@H](C1)N2c1ccc(C(=O)NCC(F)(F)F)cn1` [Example 312, 6-{3-endo-[(3-{[4-chloro-2-(trifluoromethyl)phenyl]oxy}-2,2-dimethylpropanoyl)amino]-8-azabicyclo[3.2.1]oct-8-yl}-N-(2,2,2-trifluoroethyl)pyridine-3-carboxamide] cannot be ordered by IC50: less than 200 nM for the first, less than 200 nM for the second.

`CC(C)(Oc1ccc(F)cc1Cl)C(=O)N[C@H]1C[C@H]2CC[C@@H](C1)N2c1ccc(S(C)(=O)=O)nc1` [Example 275, 2-[(2-chloro-4-fluorophenyl)oxy]-2-methyl-N-{8-[6-(methylsulfonyl)pyridin-3-yl]-8-azabicyclo[3.2.1]oct-3-endo-yl}propanamide] and `CC(C)(Oc1cc(F)c(F)cc1F)C(=O)N[C@H]1C[C@H]2CC[C@@H](C1)N2c1ccc(S(C)(=O)=O)cn1` [Example 232, 2-methyl-N-{8-[5-(methylsulfonyl)pyridin-2-yl]-8-azabicyclo[3.2.1]oct-3-endo-yl}-2-[(2,4,5-trifluorophenyl)oxy]propanamide] cannot be ordered by IC50: less than 200 nM for the first, less than 200 nM for the second.

`COCCNC(=O)c1ccc(N2[C@@H]3CC[C@H]2C[C@@H](NC(=O)C(C)(C)Oc2ccc(Cl)cc2)C3)nc1` [Example 89, 6-[3-endo-({2-[(4-chlorophenyl)oxy]-2-methylpropanoyl}amino)-8-azabicyclo[3.2.1]oct-8-yl]-N-[2-(methyloxy)ethyl]pyridine-3-carboxamide] and `COCCOc1cc(Cl)ccc1OC(C)(C)C(=O)N[C@H]1C[C@H]2CC[C@@H](C1)N2c1ccc(C(=O)NCC(F)(F)F)cn1` [Example 352, 6-[3-endo-({2-[4-chloro-2-(2-methoxyethoxy)phenoxy]-2-methylpropanoyl}amino)-8-azabicyclo[3.2.1]oct-8-yl]-N-(2,2,2-trifluoroethyl)pyridine-3-carboxamide] cannot be ordered by IC50: less than 200 nM for the first, less than 200 nM for the second.

`CC(C)(Oc1ncc(Cl)cc1Cl)C(=O)N[C@H]1C[C@H]2CC[C@@H](C1)N2c1ccc(S(C)(=O)=O)cn1` [Example 193, 2-[(3,5-dichloropyridin-2-yl)oxy]-2-methyl-N-{8-[5-(methylsulfonyl)pyridin-2-yl]-8-azabicyclo[3.2.1]oct-3-endo-yl}propanamide] and `CC(C)(Oc1ccc(C(F)(F)F)cc1)C(=O)N[C@H]1C[C@H]2CC[C@@H](C1)N2c1ccc(C(=O)NC2CC2)cn1` [Example 37, N-cyclopropyl-6-{3-endo-[(2-methyl-2-{[4-(trifluoromethyl)phenyl]oxy}propanoyl)amino]-8-azabicyclo[3.2.1]oct-8-yl}pyridine-3-carboxamide] cannot be ordered by IC50: less than 200 nM for the first, less than 200 nM for the second.
